Test results as given in ChEMBL document CHEMBL1201862, “PubChem BioAssay data set” (2004).
Active and inactive are the calls of the source.

Columns and labels:
[1] = test system: HEK293; test: inhibition of NOD1-driven NF-kB reporter – cell-based, luminescence, uHTS, primary screen (AID 1578); type: functional; settings: Homo sapiens
[2] = test system: HEK293; test: cells; type: functional, cell-based; settings: Homo sapiens
[3] = test system: HEK293; test: cells; type: functional, cell-based; settings: Homo sapiens; remark: listed apart in the source
[4] = test system: HEK293; test: NOD2 signaling inhibitors in MDP-stimulated cells, cell-based, uHTS, luminescence (AID 2001); type: functional; settings: Homo sapiens
[5] = Trypanosoma cruzi growth suppression in host cells – NIH3T3 host cells, beta-gal luminescence, confirmation (AID 2044); type: functional, cell-based;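 further: intracellular parasites grown in NIH/3T3 mouse fibroblasts as host cells; luminescent beta-galactosidase reporter signal from transgenic T. cruzi replicating inside host cells; inhibitors lower the luminescence signal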
[6] = NIH3T3 cell viability loss – ATP luminescence, mouse fibroblasts, counter-screen, dose response (AID 2010); type: functional, cell-based;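 further: cells exposed to compound for about 90 hours before reading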
[7] = HEK-293T viability loss after treatment – luminescence, T-cell screen hits, cytotoxicity control for TCR NF-kB inhibitor project, dose response (AID 489026); type: functional, cell-based;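 further: cells exposed to compound about 14 hours before the viability readout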
[8] = test system: INS1; test: INS-1E survival protection against cytokine death – cell-based, luminescence, retest, dose response (AID 449756); type: functional; settings: Rattus norvegicus;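 further: cell death triggered by IL-1 beta plus TNF-alpha plus IFN-gamma mixture; protective hits raise ATP signal compared with cytokine alone wells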
[9] = reduction of Shn3 3'UTR-driven luciferase in osteoblasts – cell-based, Clone20 osteoblasts, firefly luciferase, cherry-picked, dose response (AID 624132); type: functional;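 further: firefly luciferase luminescence from reporter carrying the Shn3 3'UTR in osteoblasts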
[10] = loss of viability in HepG2 cells – cell-based, CellTiter-Glo, cherry-picked, cytotoxicity control for Shn3 inhibitor project, dose response (AID 624134); type: functional
[11] = non-specific 3'UTR reporter inhibition in Clone20-Shn3RL – cell-based, Renilla luciferase, cherry-picked, counter-screen for Shn3 inhibitor project, dose response (AID 624133); type: functional
[12] = biological target: COUP transcription factor 2 (Homo sapiens, UniProt P24468); test: Luminescence-based cell-based high throughput dose response assay to identify inhibitors of COUP-TFII (NR2F2).; type: functional;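 further: HEK293 cells transiently cotransfected with COUP-TFII expression vector and reporter; luciferase reporter luminescence driven by COUP-TFII from the pX2-168 reporter plasmid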
Sequence of COUP transcription factor 2 (P24468 whole entry): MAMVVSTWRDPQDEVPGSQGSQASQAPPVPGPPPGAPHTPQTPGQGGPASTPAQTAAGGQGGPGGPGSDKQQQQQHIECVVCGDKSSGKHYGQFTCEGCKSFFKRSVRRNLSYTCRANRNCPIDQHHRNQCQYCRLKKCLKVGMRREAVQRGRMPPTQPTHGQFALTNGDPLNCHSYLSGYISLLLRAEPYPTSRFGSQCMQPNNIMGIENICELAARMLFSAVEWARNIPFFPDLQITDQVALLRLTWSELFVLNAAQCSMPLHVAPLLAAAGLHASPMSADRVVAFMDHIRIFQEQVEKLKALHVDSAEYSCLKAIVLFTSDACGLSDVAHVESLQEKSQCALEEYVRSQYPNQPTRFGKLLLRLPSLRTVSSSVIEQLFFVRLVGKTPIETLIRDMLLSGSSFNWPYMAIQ

[13] = cells
[14] = biological target: Transitional endoplasmic reticulum ATPase (Homo sapiens, UniProt P55072, C522A); test: Luminescence counterscreen assay for p97 inhibitors: dose response biochemical high throughput screening assay to identify inhibitors of the C522A mutant p97 ATPase: synthesized compounds. [Related pubchem assays: 1481, 1517, 1551 ]
Sequence of Transitional endoplasmic reticulum ATPase (Homo sapiens, UniProt P55072, C522A) (P55072 2-806 C522A limits assumed): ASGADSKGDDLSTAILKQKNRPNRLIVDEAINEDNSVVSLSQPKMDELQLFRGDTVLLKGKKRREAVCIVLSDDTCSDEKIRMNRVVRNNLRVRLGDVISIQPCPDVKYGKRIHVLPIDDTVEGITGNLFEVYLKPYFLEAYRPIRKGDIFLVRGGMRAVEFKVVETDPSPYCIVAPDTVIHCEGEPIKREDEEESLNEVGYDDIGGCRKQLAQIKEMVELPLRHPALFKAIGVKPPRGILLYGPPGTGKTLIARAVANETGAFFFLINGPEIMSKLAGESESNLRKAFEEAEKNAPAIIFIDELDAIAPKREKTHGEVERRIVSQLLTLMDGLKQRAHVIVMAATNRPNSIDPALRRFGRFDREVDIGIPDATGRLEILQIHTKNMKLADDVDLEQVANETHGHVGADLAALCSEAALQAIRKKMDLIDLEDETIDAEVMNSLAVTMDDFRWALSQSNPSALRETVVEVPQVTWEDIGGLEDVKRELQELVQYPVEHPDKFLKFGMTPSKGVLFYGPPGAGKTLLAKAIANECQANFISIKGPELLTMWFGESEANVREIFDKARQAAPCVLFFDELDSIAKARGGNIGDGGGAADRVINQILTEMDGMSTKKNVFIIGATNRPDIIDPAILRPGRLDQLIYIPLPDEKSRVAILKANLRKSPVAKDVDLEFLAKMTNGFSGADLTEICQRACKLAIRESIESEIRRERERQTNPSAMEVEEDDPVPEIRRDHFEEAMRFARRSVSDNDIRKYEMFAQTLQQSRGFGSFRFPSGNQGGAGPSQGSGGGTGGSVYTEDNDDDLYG

[15] = biological target: Transitional endoplasmic reticulum ATPase (Homo sapiens, UniProt P55072); test: Luminescence dose response biochemical high throughput screening assay for inhibitors of the p97 ATPase: synthesized compounds. [Related pubchem assays: 1481, 1517 ]
Sequence of Transitional endoplasmic reticulum ATPase (Homo sapiens, UniProt P55072) (P55072 whole entry): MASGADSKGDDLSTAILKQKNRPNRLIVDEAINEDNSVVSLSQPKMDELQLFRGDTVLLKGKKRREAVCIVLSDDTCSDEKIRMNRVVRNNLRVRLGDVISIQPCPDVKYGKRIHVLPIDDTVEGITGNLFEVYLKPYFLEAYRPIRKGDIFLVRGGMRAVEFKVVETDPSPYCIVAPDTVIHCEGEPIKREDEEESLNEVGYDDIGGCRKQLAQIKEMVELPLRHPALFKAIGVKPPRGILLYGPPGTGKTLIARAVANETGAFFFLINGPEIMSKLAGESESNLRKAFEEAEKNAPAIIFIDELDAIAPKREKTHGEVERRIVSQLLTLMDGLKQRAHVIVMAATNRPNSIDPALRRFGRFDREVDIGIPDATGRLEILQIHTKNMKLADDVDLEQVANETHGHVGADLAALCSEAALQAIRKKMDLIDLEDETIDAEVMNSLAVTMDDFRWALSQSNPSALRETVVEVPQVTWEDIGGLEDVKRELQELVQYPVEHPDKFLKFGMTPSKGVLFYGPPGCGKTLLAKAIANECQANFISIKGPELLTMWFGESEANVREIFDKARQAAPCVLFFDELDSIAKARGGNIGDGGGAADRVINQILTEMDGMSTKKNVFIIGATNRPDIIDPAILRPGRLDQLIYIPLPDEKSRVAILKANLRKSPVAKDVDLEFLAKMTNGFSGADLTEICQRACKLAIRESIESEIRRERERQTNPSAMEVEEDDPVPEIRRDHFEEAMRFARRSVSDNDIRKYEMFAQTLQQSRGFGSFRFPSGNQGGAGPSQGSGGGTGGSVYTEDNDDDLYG

[16] = biological target: T1, Bcl-2-like protein 10 (Homo sapiens, UniProt Q9HD36); test: Concentration-response of Bcl-B inhibitors by biochemical FP with TR3 (AID 1243); type: functional
T1 sequence (Q9HD36 whole entry): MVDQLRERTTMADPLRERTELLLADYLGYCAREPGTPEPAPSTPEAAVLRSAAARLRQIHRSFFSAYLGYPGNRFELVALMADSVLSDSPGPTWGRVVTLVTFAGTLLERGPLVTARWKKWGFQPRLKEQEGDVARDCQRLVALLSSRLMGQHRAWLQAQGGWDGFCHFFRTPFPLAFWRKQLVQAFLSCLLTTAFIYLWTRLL

[17] = biological target: NS3 (Hepatitis C virus, UniProt A3EZJ3); test: PubChem AID 2173; set-up: species or system Hepacivirus hominis
Sequence of NS3 (A3EZJ3 whole entry): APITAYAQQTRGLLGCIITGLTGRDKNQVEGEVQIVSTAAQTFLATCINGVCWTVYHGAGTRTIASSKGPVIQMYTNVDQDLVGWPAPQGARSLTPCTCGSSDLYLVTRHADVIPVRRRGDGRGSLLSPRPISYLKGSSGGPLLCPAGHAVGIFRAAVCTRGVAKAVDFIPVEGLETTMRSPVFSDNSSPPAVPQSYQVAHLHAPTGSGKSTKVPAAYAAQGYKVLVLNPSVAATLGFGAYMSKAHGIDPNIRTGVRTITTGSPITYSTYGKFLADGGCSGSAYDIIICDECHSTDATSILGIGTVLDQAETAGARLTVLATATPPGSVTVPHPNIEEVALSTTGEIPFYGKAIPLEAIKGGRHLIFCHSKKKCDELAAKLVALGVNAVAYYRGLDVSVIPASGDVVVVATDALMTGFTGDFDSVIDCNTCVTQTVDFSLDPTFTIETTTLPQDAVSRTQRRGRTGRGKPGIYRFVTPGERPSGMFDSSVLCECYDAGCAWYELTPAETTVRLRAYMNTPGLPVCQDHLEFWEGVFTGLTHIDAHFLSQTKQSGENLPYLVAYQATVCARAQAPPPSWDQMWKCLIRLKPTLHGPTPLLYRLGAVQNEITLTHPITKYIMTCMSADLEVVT

[18] = biological target: Genome polyprotein (dengue virus type 2, UniProt P29990); test: flavivirus cap methylation enzyme inhibition – biochemical, confirmation dose response, primary screen (AID 588689); type: functional
[19] = HPDE-C7 pancreatic duct cell viability loss – fluorescence, HTS (AID 430); type: functional, cell-based; settings: Homo sapiens
[20] = microbe, parasite or virus in culture; type: functional; settings: Mycobacterium tuberculosis
[21] = viability loss of HPDE-C7K cells – cell-based, fluorescence, HTS, primary screen (AID 431); type: functional; settings: Homo sapiens
[22] = cells; type: functional, cell-based
[23] = Luminescence-based dose response cell-based high throughput screening assay for cytotoxic compounds using the IEC-6 intestinal epithelial cell line. [Related pubchem assays: 1858 (Summary AID.), 1825 (Counterscreen.), 1907 (Confirmation screen.)]; type: functional
[24] = cells; type: functional, cell-based; remark: listed apart in the source
[25] = biological target: Albumin (Bos taurus, UniProt P02769); test: Counterscreen for inhibitors of T-cell receptor (TCR)-CD3 interaction: Fluorescence-based biochemical high throughput dose response assay to identify inhibitors of T-cell receptor (TCR)-CD3 interaction using a TAMRA-labeled BSA probe.; type: functional
Sequence of Albumin (P02769 whole entry): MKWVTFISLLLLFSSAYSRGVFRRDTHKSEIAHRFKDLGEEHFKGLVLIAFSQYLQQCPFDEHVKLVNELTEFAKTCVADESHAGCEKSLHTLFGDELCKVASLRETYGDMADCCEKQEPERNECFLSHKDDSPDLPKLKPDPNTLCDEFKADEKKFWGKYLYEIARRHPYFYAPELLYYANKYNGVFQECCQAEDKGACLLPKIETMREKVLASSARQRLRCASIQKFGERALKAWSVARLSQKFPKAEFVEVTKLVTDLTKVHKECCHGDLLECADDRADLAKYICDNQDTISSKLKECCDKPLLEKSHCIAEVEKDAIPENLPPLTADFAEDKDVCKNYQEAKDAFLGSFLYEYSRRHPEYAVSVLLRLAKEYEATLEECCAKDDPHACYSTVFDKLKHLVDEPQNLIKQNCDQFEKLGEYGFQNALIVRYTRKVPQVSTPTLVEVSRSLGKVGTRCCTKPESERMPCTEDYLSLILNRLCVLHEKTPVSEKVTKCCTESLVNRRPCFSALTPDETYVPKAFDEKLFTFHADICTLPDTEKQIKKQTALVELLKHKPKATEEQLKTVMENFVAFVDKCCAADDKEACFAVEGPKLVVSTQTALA

[26] = HGIII-sPLA2 enzyme inhibition potency – biochemical, QFRET, IC50, dose response (AID 743457);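 further: green fluorescence rise as the enzyme cleaves BODIPY PC-A2 in liposomes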
[27] = biological target: Endoplasmic reticulum aminopeptidase 1 (Homo sapiens, UniProt Q9NZ08); test: inhibition of human ERAP1 enzyme activity – biochemical, cherry-pick, set 2, plate reader, dose response (AID 743314)
Sequence of Endoplasmic reticulum aminopeptidase 1 (Q9NZ08 whole entry): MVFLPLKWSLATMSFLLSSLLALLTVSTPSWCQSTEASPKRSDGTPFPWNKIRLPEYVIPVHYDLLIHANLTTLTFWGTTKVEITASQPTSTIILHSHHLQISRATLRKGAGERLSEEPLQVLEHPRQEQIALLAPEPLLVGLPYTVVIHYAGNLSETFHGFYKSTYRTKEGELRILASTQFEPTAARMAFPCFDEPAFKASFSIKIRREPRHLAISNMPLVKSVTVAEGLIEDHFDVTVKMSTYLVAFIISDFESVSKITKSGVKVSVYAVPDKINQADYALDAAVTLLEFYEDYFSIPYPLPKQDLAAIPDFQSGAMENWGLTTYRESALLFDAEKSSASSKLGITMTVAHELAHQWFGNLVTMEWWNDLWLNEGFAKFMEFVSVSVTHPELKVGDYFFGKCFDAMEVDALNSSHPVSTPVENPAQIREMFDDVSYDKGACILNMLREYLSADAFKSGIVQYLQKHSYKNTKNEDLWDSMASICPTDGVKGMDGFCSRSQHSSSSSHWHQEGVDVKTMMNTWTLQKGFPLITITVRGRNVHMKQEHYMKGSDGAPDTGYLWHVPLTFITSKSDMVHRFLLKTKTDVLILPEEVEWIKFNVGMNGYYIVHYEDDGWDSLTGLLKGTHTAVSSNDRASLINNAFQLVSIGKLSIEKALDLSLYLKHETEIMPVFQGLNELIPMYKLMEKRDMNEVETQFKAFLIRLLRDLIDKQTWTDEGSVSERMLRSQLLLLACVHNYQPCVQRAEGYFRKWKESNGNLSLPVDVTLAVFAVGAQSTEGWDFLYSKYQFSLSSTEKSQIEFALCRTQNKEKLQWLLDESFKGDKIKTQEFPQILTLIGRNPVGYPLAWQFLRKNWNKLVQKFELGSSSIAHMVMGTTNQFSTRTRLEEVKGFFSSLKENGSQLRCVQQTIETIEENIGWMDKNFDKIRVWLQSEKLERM

[28] = biological target: Paired box protein Pax-8 (Homo sapiens, UniProt Q06710); test: PAX8 transcriptional activity inhibition in RMG-I – RMG-I cells, luciferase, cherry-pick, dose response (AID 687027); type: functional, cell-based;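 further: luciferase reporter driven by Pax8 target thyroperoxidase promoter measured by SteadyGlo luminescence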
Sequence of Paired box protein Pax-8 (Q06710 whole entry): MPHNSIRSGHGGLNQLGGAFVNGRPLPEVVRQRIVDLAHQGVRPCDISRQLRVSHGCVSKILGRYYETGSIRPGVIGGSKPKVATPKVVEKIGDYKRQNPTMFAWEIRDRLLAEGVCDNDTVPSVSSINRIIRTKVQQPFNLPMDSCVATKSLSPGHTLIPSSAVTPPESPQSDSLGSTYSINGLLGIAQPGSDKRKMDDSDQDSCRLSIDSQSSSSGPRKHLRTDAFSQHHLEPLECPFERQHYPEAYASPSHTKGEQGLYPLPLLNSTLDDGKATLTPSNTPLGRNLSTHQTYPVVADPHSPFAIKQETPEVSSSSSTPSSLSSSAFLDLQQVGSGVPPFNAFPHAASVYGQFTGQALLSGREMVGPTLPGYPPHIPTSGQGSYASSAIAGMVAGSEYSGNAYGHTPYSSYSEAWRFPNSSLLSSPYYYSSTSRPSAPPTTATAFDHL

[29] = OVCAR8 cell viability loss – plate reader, dry powder samples, PAX8 project, dose response (AID 743197); type: functional, cell-based; settings: OVCAR-8
[30] = lung carcinoma cell viability loss – CellTiter-Glo luminescence, dry powder, set 17, dose response (AID 1117284); type: functional, cell-based; settings: A549

Structure (SMILES): COc1ccc(C2=Nn3c([n+](C)c4ccccc43)SC2)cc1
- EC50 [1]: 11.1 µM (active)
- IC50 [2]: 12.2 µM (active)
- IC50 [3]: > 20 µM (inactive)
- IC50 [4]: 13 µM (inactive)
- EC50 [5]: < 0.1 µM (active)
- EC50 [6]: > 60 µM (not active)
- IC50 [7]: > 80 µM (inactive)
- AC50 [8]: 1.54 µM (active)
- AC50 [9]: 1.16 µM (active)
- AC50 [10]: > 70 µM (inactive)
- AC50 [11]: 3.2 µM (active)
- IC50 [12]: 5.66 µM (active)
- EC50 [13]: 0.087 µM (active)

Structure (SMILES): CCOC(=O)/C(C#N)=C/c1ccc(F)cc1[N+](=O)[O-]
- IC50 [14]: > 50 µM (not active)
- IC50 [15]: > 50 µM (not active)

Structure (SMILES): Cc1cc(-c2csc(Nc3ccc(C#N)cc3)n2)c(C)n1CCc1ccccc1
- IC50 [14]: > 50 µM (not active)
- IC50 [15]: > 50 µM (not active)

Structure (SMILES): Cc1ccc(Cl)cc1S(=O)(=O)N1CCC(C(=O)NC2CCN(Cc3ccccc3)CC2)CC1
- IC50 [12]: 12 µM (inactive)

Structure (SMILES): COc1cc(N)ccc1-n1c(C)ccc1C
- EC50 [16]: 32.9 µM (active)

Structure (SMILES): Cc1cc(N2C(=O)C(O)=C(C(=O)c3ccco3)C2c2cccc(Oc3ccccc3)c2)no1 (configuration not stated)
- IC50 [17]: 2.64 µM (active)
- IC50 [18]: 64.6 µM (active)

Structure (SMILES): Cc1oc(C(=O)Nc2ccc(O)cc2)cc1COc1ccccc1
- EC50 [19]: 16.6 µM (active)
- CC50 [20]: > 40 µM (active)
- EC50 [21]: 13.9 µM (active)

Structure (SMILES): CC1=C(C#N)c2nc(N)c(C#N)c(C)c2/C1=C/c1ccc(-c2ccc(C(=O)O)c(Cl)c2)o1
- EC50 [16]: 1.65 µM (active)

Structure (SMILES): C/C(=N\NC(=O)c1nnn(-c2nonc2N)c1-c1ccccc1)c1ccccc1O
- EC50 [22]: 113 µM (active)
- EC50 [5]: 0.617 µM (active)
- IC50 [23]: 1.19 µM (active)
- EC50 [24]: 58.5 µM (active)
- EC50 [6]: 3.76 µM (active)
- AC50 [8]: 0.353 µM (active)
- IC50 [25]: > 94.1 µM (inactive)
- IC50 [26]: > 122 µM (inactive)

Structure (SMILES): CCCNC(=O)N(C)C[C@@H]1Oc2ncc(-c3ccncc3)cc2C(=O)N([C@H](C)CO)C[C@@H]1C
- AC50 [27]: 16.9 µM (active)

Structure (SMILES): C[C@@H]1CN([C@@H](C)CO)S(=O)(=O)c2ccc(C#C[C@@H](C)O)cc2O[C@@H]1CN(C)Cc1ccc(-c2ccccc2)cc1
- AC50 [28]: 12.3 µM (active)
- AC50 [29]: > 70 µM (inactive)
- AC50 [30]: > 52 µM (inactive)
